Test results: paper PMC8609006, “Design of modular autoproteolytic gene switches responsive to anti-coronavirus drug candidates” (Nature Communications, 2021)

Target: T1, SARS-CoV-2 Mpro (Mpro(S2), 3CLpro) (Severe acute respiratory syndrome coronavirus 2, UniProt P0DTD1)
T1 construct: gene rep; mature Mpro (nsp5) cut from polyprotein pp1a/pp1ab, human codon-optimized, fused N-terminally to TetR-MproCSOPT-VP64 (pNF167), expressed in HEK293T; TAGS plasmids OK425851-OK425853 (not assigned singly)
Format: cell-based

## CC(C)(C)NC(=O)N[C@H](C(=O)N1C[C@H]2[C@@H]([C@H]1C(=O)NC(CC1CCC1)C(=O)C(N)=O)C2(C)C)C(C)(C)C (stereo partly shown) [Boceprevir]
  Mpro-TAGS nanoLuc gain-of-signal reporter in HEK293T cells, 24 h: GRL-0496 and Boceprevir only slightly induced gene expression
